From PubChem BioAssay AID248 (DTP/NCI, 2004)
“And” between values parts separate entries of the source, which are not always exact repeats. Identical values can stand only once. Toxic doses and inconclusive results are not listed. Cut-off read from the data, not from the text of the source: active = T/C of 150% or more; inactive = T/C below 125%.

Tested on: L1210 leukemia ip in BDF1 mice, survival T/C
Experiment: NCI In Vivo Anticancer Drug Screen. Data for tumor model L1210 Leukemia (intraperitoneal) in B6D2F1 (BDF1) mice
Details: endpoint: mean survival time, higher = longer survival
In short: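 Read-out is survival time, reported as the treated-group measurement over the vehicle-control measurement.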

[1] = dose: 100.0 mg/kg/injection, schedule: Q01DX001 (ip), vehicle: saline
[2] = dose: 200.0 mg/kg/injection, schedule: Q01DX001 (ip), vehicle: saline
[3] = dose: 400.0 mg/kg/injection, schedule: Q01DX001 (ip), vehicle: saline
[4] = dose: 100.0 mg/kg/injection, schedule: Q04DX003 (ip), vehicle: Klucel (hydroxypropylcellulose) (HPC)
[5] = dose: 100.0 mg/kg/injection, schedule: Q04DX003 (ip), vehicle: saline with Tween-80
[6] = dose: 200.0 mg/kg/injection, schedule: Q04DX003 (ip), vehicle: saline with Tween-80
[7] = dose: 400.0 mg/kg/injection, schedule: Q04DX003 (ip), vehicle: saline with Tween-80
[8] = dose: 50.0 mg/kg/injection, schedule: Q01DX009 (ip), vehicle: saline with Tween-80
[9] = dose: 100.0 mg/kg/injection, schedule: Q01DX009 (ip), vehicle: saline with Tween-80
[10] = dose: 200.0 mg/kg/injection, schedule: Q01DX009 (ip), vehicle: saline with Tween-80

Measured: T/C

CNS(=O)(=O)c1ccccc1C(C)(O)c1ccccc1 (stereo not drawn)
inactive: [1] 97 % of control | [2] 103 % of control | [3] 97 % of control

CCN(N=O)C(=O)NC1C(O)OC(CO)C(O)C1O (stereo not drawn)
inactive: dose: 25.0 mg/kg/injection, schedule: Q01DX009 (ip), vehicle: other 100 % of control | dose: 50.0 mg/kg/injection, schedule: Q01DX009 (ip), vehicle: other 118 % of control | dose: 100.0 mg/kg/injection, schedule: Q01DX009 (ip), vehicle: other 113 % of control | dose: 200.0 mg/kg/injection, schedule: Q01DX009 (ip), vehicle: other 112 % of control

CCC(C)n1c(C)cc(=O)n1C(C)CC (stereo not drawn)
inactive: dose: 15.0 mg/kg/injection, schedule: Q01DX001 (ip), vehicle: saline 101 % of control | dose: 30.0 mg/kg/injection, schedule: Q01DX001 (ip), vehicle: saline 97 % of control | dose: 60.0 mg/kg/injection, schedule: Q01DX001 (ip), vehicle: saline 101 % of control

Cc1ccc(Nc2cc(=O)[nH]c(N)n2)cc1C
inactive: dose: 100.0 mg/kg/injection, schedule: Q01DX Z (ip), vehicle: methylcellulose (MC) 95 % of control | dose: 200.0 mg/kg/injection, schedule: Q01DX Z (ip), vehicle: methylcellulose (MC) 95 % of control

CCOC(=O)CNS(=O)(=O)CCN1C(=O)c2ccccc2C1=O
inactive: dose: 50.0 mg/kg/injection, schedule: Q04DX003 (ip), vehicle: Klucel (hydroxypropylcellulose) (HPC) 98 % of control | [4] 100 % of control | dose: 200.0 mg/kg/injection, schedule: Q04DX003 (ip), vehicle: Klucel (hydroxypropylcellulose) (HPC) 98 % of control

O=C1CC(=O)Nc2ccccc2N1
inactive: dose: 50.0 mg/kg/injection, schedule: Q01DX009 (ip), vehicle: saline 86 % of control | dose: 100.0 mg/kg/injection, schedule: Q01DX009 (ip), vehicle: saline 86 % of control | dose: 100.0 mg/kg/injection, schedule: Q04DX003 (ip), vehicle: saline 98 % of control | dose: 200.0 mg/kg/injection, schedule: Q01DX009 (ip), vehicle: saline 96 % of control | dose: 200.0 mg/kg/injection, schedule: Q04DX003 (ip), vehicle: saline 101 % of control | dose: 400.0 mg/kg/injection, schedule: Q04DX003 (ip), vehicle: saline 101 % of control

CSc1n[nH]c(=O)nc1SC
inactive: [1] 104 % of control | [2] 96 % of control

O=C(O)CS(=O)(=O)c1nc2ccccc2[nH]1
inactive: dose: 100.0 mg/kg/injection, schedule: Q01DX009 (ip), vehicle: carboxymethylcellulose (CMC) 94 % of control | dose: 200.0 mg/kg/injection, schedule: Q01DX009 (ip), vehicle: carboxymethylcellulose (CMC) 91 % of control | dose: 400.0 mg/kg/injection, schedule: Q01DX009 (ip), vehicle: carboxymethylcellulose (CMC) 91 % of control

Cc1cc(C)c(C(=O)O)c(C)c1Br
inactive: dose: 50.0 mg/kg/injection, schedule: Q01DX001 (ip), vehicle: other 98 % of control | dose: 100.0 mg/kg/injection, schedule: Q01DX001 (ip), vehicle: other 104 % of control | [5] 96 % of control | dose: 200.0 mg/kg/injection, schedule: Q01DX001 (ip), vehicle: other 96 % of control | [6] 94 % of control | dose: 400.0 mg/kg/injection, schedule: Q01DX001 (ip), vehicle: other 111 % of control | [7] 103 % of control

CNC(=O)Nc1ccccc1[N+](=O)[O-]
inactive: dose: 100.0 mg/kg/injection, schedule: Q04DX002 (ip), vehicle: Klucel (hydroxypropylcellulose) (HPC) 108 % of control | dose: 200.0 mg/kg/injection, schedule: Q04DX002 (ip), vehicle: Klucel (hydroxypropylcellulose) (HPC) 97 % of control

[O-]/[N+](=C\c1ccc(OCc2ccccc2)cc1)c1ccccc1
inactive: dose: 50.0 mg/kg/injection, schedule: Q01DX001 (ip), vehicle: saline 102 % of control | [1] 102 % of control | [2] 108 % of control | [3] 90 % of control

COc1cc([N+](=O)[O-])ccc1C#N
inactive: [4] 113 % of control | dose: 400.0 mg/kg/injection, schedule: Q04DX003 (ip), vehicle: Klucel (hydroxypropylcellulose) (HPC) 96 % of control

CNC(=O)N(C)Cc1ccco1
inactive: dose: 50.0 mg/kg/injection, schedule: Q01DX009 (ip), vehicle: Klucel (hydroxypropylcellulose) (HPC) 91 % of control | dose: 100.0 mg/kg/injection, schedule: Q01DX009 (ip), vehicle: Klucel (hydroxypropylcellulose) (HPC) 102 % of control | dose: 200.0 mg/kg/injection, schedule: Q01DX009 (ip), vehicle: Klucel (hydroxypropylcellulose) (HPC) 101 % of control

O=S(=O)(Nc1ccccc1)c1ccccc1C(O)(c1ccccc1)c1ccccc1
inactive: dose: 100.0 mg/kg/injection, schedule: Q01DX001 (ip), vehicle: carboxymethylcellulose (CMC) 106 % of control | dose: 200.0 mg/kg/injection, schedule: Q01DX001 (ip), vehicle: carboxymethylcellulose (CMC) 90 % of control | dose: 400.0 mg/kg/injection, schedule: Q01DX001 (ip), vehicle: carboxymethylcellulose (CMC) 93 % of control

CCC1C2CC3C4N(C)c5ccccc5C45CC(C2C5O)N3C1O (stereo not drawn)
inactive: [8] 100 % of control | [9] 103 % of control

FC(F)(F)c1nc2nc(Br)c(Br)nc2[nH]1
inactive: [8] 108 % of control | [9] 89 % of control | [5] 109 % of control and 110 % of control and 111 % of control | [10] 98 % of control | [6] 102 % of control and 115 % of control

OC1CC2CCC1C2 (stereo not drawn)
inactive: [9] 94 % of control | [5] 106 % of control | [10] 105 % of control | [6] 91 % of control | dose: 400.0 mg/kg/injection, schedule: Q01DX009 (ip), vehicle: saline with Tween-80 95 % of control | [7] 88 % of control

CC(C(O)c1ccncc1)[N+](=O)[O-] (stereo not drawn)
inactive: dose: 100.0 mg/kg/injection, schedule: Q04DX002 (ip), vehicle: saline with Tween-80 92 % of control | dose: 200.0 mg/kg/injection, schedule: Q04DX002 (ip), vehicle: saline with Tween-80 107 % of control | dose: 400.0 mg/kg/injection, schedule: Q04DX002 (ip), vehicle: saline with Tween-80 92 % of control
